How the values were obtained:
[1] = Encapsulation efficiency of LNP preparations (Ribogreen assay; Qubit, unlysed and lysed LNPs); type: physicochemical; conditions: LNP preparation with the ionizable lipid, ABE mRNA:sgRNA 1:1, except 7-1, 7-2, 7-6, 7-10 (unlysed and lysed LNPs, Qubit)
Summary of the method: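 LNPs of ionizable lipid, cholesterol, PEG2000-DMG and DSPC (47.5:40:2.5:10 mol%) were made by microfluidic mixing with base-editor mRNA plus sgRNA (1:1 mass) in 50 mM citrate, pH 4.0, at total lipid:NA molar ratio 6 to 12. Encapsulation was read by Ribogreen, or for lipids 7-1, 7-2, 7-6 and 7-10 by Qubit on unlysed versus lysed LNPs.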

[2] = LNP hydrodynamic diameter and polydispersity index by dynamic light scattering (DLS); type: physicochemical; conditions: for Diameter (nm): hydrodynamic diameter of the LNP preparation with the ionizable lipid; for PDI: polydispersity index of the LNP preparation with the ionizable lipid
Summary of the method: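 LNPs were mixed at a 3:1 aqueous:organic ratio, diluted in TBS and dialysed against TBS at 4° C. for 8 to 24 hours (20 kDa). Hydrodynamic diameter and PDI were then measured by high-throughput DLS after dilution in 1×PBS.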

ALAS1 target site = assay: Base editing in liver by LNP-delivered ABE mRNA and sgRNA, targeted deep sequencing; type: in vivo; conditions: LNP with the ionizable lipid, ABE mRNA + sgRNA targeting ALAS1 1:1; tail vein injection, Balb/c mice; 0.05 mg/kg; tissues four to six days post-dose

Encapsulation Efficiency (%) [1] [%]	Diameter (nm) [2] [nm]	PDI [2]	Compound	% Editing in Liver (0.05 mpk) (ALAS1 target site) [%]
96.6	53.45	0.09	CC/C=C\CCCCOC(CCC(=O)OCC(COC(=O)CCCCCCOC(=O)C(CCCC)CCCCCC)COC(=O)CCC(CCCCCCC)OC(=O)NCCN1CCCC1)OCCCC/C=C\CC (centres unmarked) [Compound 7-50, 3-((4,4-bis(((Z)-oct-5-en-1-yl)oxy)butanoyl)oxy)-2-(((7-((2-butyloctanoyl)oxy)heptanoyl)oxy)methyl)propyl 4-(((2-(pyrrolidin-1-yl)ethyl)carbamoyl)oxy)undecanoate]	4.0
96.6	51.15	0.08	CC/C=C\CCCCOC(CCC(=O)OCC(COC(=O)CCCCCCOC(=O)C(CCCC)CCCCCC)COC(=O)CCC(CCCCCCCC)OC(=O)NCCN1CCCC1)OCCCC/C=C\CC (centres unmarked) [Compound 7-51, 3-((4,4-bis(((Z)-oct-5-en-1-yl)oxy)butanoyl)oxy)-2-(((7-((2-butyloctanoyl)oxy)heptanoyl)oxy)methyl)propyl 4-(((2-(pyrrolidin-1-yl)ethyl)carbamoyl)oxy)dodecanoate]	1.0
